Test results as given in patent US5912259A, “Method for treating and preventing neurodegenerative disorders by administering a thiazolidinone” (Warner-Lambert Company, priority 1998, dated 1999).

Legend:
cyclooxygenase = conditions: described in U.S. Pat. No. 5,143,928; cited from earlier work
5-lipoxygenase = conditions: described in U.S. Pat. No. 5,143,928; cited from earlier work
NMDA-induced injury = test system: NMDA-induced injury
Experimental: Intrastriatal injections of NMDA (15 nmol/0.5 μL) were performed in male and female Sprague-Dawley rat pups (Charles River Laboratory, Portage, Mich.) on Postnatal Day (PND) 7. The animals were anesthetized with ether, and the calvarium was exposed by a midline incision through the skin. The rat pups were placed in a plaster of paris mold that was secured to a small animal stereotaxic instrument (Kopf Instruments). NMDA (Sigma) was dissolved in 0.1 M phosphate-buffered saline (PBS) adjusted to pH 7.4 with 1 N NaOH. Injections of NMDA ([…]) were placed in the middle of the right posterior corpus striatum (coordinates relative to Bregma; AP -2.0 mm, ML 2.5 mm, at a depth of 4.0 mm from the dura) with a 26-gauge Hamilton syringe. The syringe was left in place for 2 minutes following the injections to limit leakage. Temperature of the animals was kept constant after surgery in a thermostatically controlled environment (HovaBator chick incubator; BFG Corp., Savannah, Ga.) set at 35° C. to 36° C. for 1 hour after the last drug or vehicle injection. Drug solutions were prepared in PBS and injected intraperitoneally (0.05 mL volume) 15 minutes, and 2.25 hours after intrastriatal injection of NMDA. Control animals received equal volumes of PBS.
After surgery, all animals were returned to the mothers for 5 days, and decapitated on PND 12. The brains were removed, the cerebral hemispheres were separated, and wet weights of each hemisphere were determined individually. Differences of the hemispheric weights were compared for each animal using the formula: 100×(C-I/C)=percent damage, a value that indicates the severity of damage of the injected (I) cerebral hemisphere relative to that of the uninjected contralateral (C) hemisphere. Percent protection is used to indicate the relative protection of the neuroprotective compound compared to the control and was calculated as: 100×[1-(% damagetreated /% damagecontrol)]. Data were expressed as mean percent damage±S.E.M. in all groups. Independent t-tests were used for statistical comparisons.

[1] = test system: canine leptomeningeal smooth muscle cells; test: Amyloid β-peptide-induced cytotoxicity in canine leptomeningeal smooth muscle cells; assay type: cell-based, dog
Source text: Canine smooth muscle cells were isolated from freshly obtained old dog meninges. […] Old dogs have an angiopathy resembling the human condition. Smooth muscle cells are the site of cerebral vessel myopathy occurring in the Dutch form of Alzheimer's disease. The compromise of these cells ultimately leads to a cerebrovascular accident and the death of some humans.
Cells from the meninges were dissociated and kept in culture in 10% fetal calf serum and Dulbecco's minimal essential media with antibiotics for about 1 week on tissue culture plates before use in biochemical studies or transferal to uncoated microscope slides for morphological studies. These smooth muscle cells represent brain blood vessel cells and they can be passaged several times. For inducing cytotoxicity, the cells were treated, in serum-free media, with 10 to 20 μM of amyloid β-peptide that was 42 amino acids long. This peptide corresponds to the human β-peptide sequence. The peptide was dissolved in water immediately before use. This small amount of protein is believed to approximate the concentration of protein observed in postmortem samples in the brains of people who died with Alzheimer's dementia.
Percentages were determined by counting normal and apoptotic nuclei in three fields with five independent measures in a fluorescence microscope.

For `CC(C)(C)c1cc(C=C2SC(=N)NC2=O)cc(C(C)(C)C)c1O` [5-[[3,5-bis-(1,1-dimethylethyl)-4-hydroxyphenyl]methylene]-2-imino-4-thiazolidinone], the “inhibition of cyclooxygenase activity” value (cyclooxygenase) is listed as “inhibits the activities of both cyclooxygenase and 5-lipoxygenase” and the “inhibition of 5-lipoxygenase activity” value (5-lipoxygenase) is listed as “inhibits the activities of both cyclooxygenase and 5-lipoxygenase”.
With `CN[C@H](CC(=O)O)C(=O)O` [NMDA, N-methyl-D-aspartate, reference compound] the “reduction in wet weight of the ipsilateral cerebral hemisphere” value (NMDA-induced injury; NMDA 15 nmol/0.5 μL injected into posterior striatum, i.p. PBS, N=10) was 20.6±1.8%.
In the case of `COc1ccc2c(c1)c(CC(=O)O)c(C)n2C(=O)c1ccc(Cl)cc1` [indomethacin, reference compound], the “protection compared with the thiazolidinone” value (NMDA-induced injury; 2×30 mg/kg, versus thiazolidinone 2×30 mg/kg) is reported as “comparable”.
For “human protein sequence: amyloid β-peptide that was 42 amino acids long; corresponds to the human β-peptide sequence [reference compound]”, the “earliest statistically significant cytotoxicity” value ([1]; 10 to 20 μM amyloid β-peptide) was 24 h and the “smooth muscle cells killed apoptotically” value ([1]; 10 to 20 μM, 1-week period, serum-free media, Hoechst 33258, 10080 min) was 70% to 85.
